Experimental data published in patent publication US10392368B2, “Pyrazolo and triazolo bicyclic compounds as JAK kinase inhibitors” (THERAVANCE BIOPHARMA R&D IP, LLC, priority 2017, dated 2019).
Where two headings read alike, the source gives them in different places.

Experiments:
JAK1 = molecular target: T1, JAK1 (Homo sapiens, UniProt P23458); experiment: Biochemical JAK1 kinase assay (LanthaScreen); conditions: for Ki: read-out: JAK 1 (pKi) (converted)
T1 construct: GST; purchased Life Technologies
Procedure, shortened: (§1)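 Values are pKi, calculated by Cheng-Prusoff from IC50 obtained by robust 4-parameter fitting of percent inhibition. The kinase reaction used GFP-STAT1 peptide in HEPES pH 7.5 buffer with MgCl2, EGTA and Brij-35, ATP-initiated after compound pre-incubation, 1 h at ambient temperature.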

JAK2 = molecular target: T2, JAK2 (Homo sapiens, UniProt O60674); experiment: Biochemical JAK2 kinase assay (LanthaScreen); conditions: for Ki: read-out: JAK 2 (pKi) (converted)
T2 construct: GST; purchased Life Technologies
Procedure: (§2) A panel of four LanthaScreen JAK biochemical assays (JAK1, 2, 3 and Tyk2) were carried in a common kinase reaction buffer (50 mM HEPES, pH 7.5, 0.01% Brij-35, 10 mM MgCl2, and 1 mM EGTA). Recombinant GST-tagged JAK enzymes and a GFP-tagged STAT1 peptide substrate were obtained from Life Technologies.
(§3) Serially or discretely diluted compounds were pre-incubated with each of the four JAK enzymes and the substrate in white 384-well microplates (Corning) at ambient temperature for 1 h. ATP was subsequently added to initiate the kinase reactions in 10 μL total volume, with 1% DMSO. […] Kinase reactions were allowed to proceed for 1 hour at ambient temperature before a 10 μL preparation of EDTA (10 mM final concentration) and Tb-anti-pSTAT1 (pTyr701) antibody (Life Technologies, 2 nM final concentration) in TR-FRET dilution buffer (Life Technologies) was added. The plates were allowed to incubate at ambient temperature for 1 h before being read on the EnVision reader (Perkin Elmer).
(§4) For dose-response analysis, percent inhibition data were plotted vs. compound concentrations, and IC50 values were determined from a 4-parameter robust fit model with the Prism software (GraphPad Software). Results were expressed as pIC50 (negative logarithm of IC50) and subsequently converted to pKi (negative logarithm of dissociation constant, Ki) using the Cheng-Prusoff equation.

Tyk2 = molecular target: T3, Tyk2 (Homo sapiens, UniProt P29597); experiment: Biochemical Tyk2 kinase assay (LanthaScreen); conditions: read-out: Tyk 2 (pKi) (converted)
T3 construct: GST; purchased Life Technologies
Procedure: as §2
as §3, with “Elmer). Emission ratio signals (520 nm/495 nm) were recorded and utilized to calculate the percent inhibition values based on DMSO and background controls.” for “Elmer).”
as §4

JAK3 = molecular target: T4, JAK3 (Homo sapiens, UniProt P52333); experiment: Biochemical JAK3 kinase assay (LanthaScreen); parameters: GST; purchased Life Technologies
T4 sequence (P52333 1-1124): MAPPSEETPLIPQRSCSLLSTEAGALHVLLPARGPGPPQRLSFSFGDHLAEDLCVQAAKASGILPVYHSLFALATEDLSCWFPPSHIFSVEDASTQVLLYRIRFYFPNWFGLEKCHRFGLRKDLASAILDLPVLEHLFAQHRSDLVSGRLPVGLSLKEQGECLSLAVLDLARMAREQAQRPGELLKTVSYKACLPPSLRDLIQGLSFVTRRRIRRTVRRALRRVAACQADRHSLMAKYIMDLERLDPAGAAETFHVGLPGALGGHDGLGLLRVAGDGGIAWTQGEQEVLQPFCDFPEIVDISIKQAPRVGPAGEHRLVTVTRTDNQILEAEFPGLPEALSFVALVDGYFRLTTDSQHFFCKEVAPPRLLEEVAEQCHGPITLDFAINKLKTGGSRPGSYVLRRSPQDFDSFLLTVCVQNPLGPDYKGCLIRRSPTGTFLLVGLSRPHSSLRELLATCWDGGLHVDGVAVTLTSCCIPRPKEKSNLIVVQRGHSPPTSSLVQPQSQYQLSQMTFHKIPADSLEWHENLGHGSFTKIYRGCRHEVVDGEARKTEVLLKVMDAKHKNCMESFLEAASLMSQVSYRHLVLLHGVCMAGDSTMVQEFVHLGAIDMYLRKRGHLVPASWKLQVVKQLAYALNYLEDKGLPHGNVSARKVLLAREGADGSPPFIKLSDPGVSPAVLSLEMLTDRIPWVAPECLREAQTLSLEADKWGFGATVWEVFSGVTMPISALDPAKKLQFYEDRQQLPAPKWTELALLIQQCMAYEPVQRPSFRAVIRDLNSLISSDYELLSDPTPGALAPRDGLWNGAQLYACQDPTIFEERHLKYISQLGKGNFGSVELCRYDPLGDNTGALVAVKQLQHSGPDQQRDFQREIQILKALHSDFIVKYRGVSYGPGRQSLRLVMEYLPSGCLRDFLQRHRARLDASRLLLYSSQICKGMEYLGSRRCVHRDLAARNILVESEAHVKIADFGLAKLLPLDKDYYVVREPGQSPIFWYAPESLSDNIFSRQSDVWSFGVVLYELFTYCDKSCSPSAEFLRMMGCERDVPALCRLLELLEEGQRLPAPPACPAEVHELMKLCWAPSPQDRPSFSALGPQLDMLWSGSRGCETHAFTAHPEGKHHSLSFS
Procedure, shortened: as §1

[1] = tested on: IL-2 stimulated pSTAT5 in Tall-1 T cells; experiment: Cellular JAK3 potency assay: inhibition of IL-2 stimulated pSTAT5 in Tall-1 T cells; type: cell-based, human; conditions: for IC50: Homo sapiens, read-out: Tall-1 (pIC50) (converted); for Tall-1 (pIC50): IL-2 stimulated pSTAT5, Tall-1 T cells
Procedure, shortened: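 Inhibition of IL-2-induced pSTAT5 was quantified by AlphaLisa in Tall-1 cell lysates. Compound exposure lasted 1 h before 30 min stimulation with 300 ng/ml IL-2 final.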

[2] = read-out: JAK 3 (pKi) (converted)
[3] = selectivity: difference of pKi JAK3 and pKi JAK1
[4] = TALL-1, IL-2 stimulated pSTAT5 in Tall-1 T cells
[5] = selectivity JAK3 over JAK1, difference of pKi
[6] = TALL-1, IL-2 stimulated pSTAT5, Tall-1 T cells

T3 sequence (P29597 whole entry): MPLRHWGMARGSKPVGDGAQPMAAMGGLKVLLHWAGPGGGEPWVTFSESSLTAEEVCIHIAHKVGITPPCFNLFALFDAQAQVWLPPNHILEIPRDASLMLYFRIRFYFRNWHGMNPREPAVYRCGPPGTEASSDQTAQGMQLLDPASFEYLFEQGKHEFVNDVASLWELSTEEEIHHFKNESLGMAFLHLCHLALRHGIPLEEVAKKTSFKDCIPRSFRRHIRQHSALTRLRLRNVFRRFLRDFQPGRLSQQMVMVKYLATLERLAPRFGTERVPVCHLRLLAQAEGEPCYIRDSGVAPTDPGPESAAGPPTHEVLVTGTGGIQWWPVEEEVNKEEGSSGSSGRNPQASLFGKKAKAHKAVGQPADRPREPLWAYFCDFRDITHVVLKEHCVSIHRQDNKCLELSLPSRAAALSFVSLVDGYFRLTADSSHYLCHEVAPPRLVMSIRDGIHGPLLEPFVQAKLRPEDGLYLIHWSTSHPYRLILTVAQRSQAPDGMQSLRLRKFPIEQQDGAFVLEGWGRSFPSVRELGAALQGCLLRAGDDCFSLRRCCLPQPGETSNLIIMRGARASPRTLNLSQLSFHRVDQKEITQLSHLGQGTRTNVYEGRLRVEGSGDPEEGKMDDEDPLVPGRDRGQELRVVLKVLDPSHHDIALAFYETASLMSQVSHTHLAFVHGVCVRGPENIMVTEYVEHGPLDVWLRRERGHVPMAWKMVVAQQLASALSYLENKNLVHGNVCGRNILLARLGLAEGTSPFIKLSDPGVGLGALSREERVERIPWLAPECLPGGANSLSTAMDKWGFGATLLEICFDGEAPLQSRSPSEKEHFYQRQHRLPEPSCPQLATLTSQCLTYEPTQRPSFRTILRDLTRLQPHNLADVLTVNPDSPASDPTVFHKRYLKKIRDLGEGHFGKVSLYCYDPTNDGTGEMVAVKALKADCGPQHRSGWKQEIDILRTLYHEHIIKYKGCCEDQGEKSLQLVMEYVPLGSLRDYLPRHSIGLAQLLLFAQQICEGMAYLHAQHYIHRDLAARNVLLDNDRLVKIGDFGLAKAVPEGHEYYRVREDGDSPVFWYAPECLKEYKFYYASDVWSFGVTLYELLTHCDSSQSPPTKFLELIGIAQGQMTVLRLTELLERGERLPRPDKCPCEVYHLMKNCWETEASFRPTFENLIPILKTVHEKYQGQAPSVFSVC
T2 sequence (O60674 whole entry): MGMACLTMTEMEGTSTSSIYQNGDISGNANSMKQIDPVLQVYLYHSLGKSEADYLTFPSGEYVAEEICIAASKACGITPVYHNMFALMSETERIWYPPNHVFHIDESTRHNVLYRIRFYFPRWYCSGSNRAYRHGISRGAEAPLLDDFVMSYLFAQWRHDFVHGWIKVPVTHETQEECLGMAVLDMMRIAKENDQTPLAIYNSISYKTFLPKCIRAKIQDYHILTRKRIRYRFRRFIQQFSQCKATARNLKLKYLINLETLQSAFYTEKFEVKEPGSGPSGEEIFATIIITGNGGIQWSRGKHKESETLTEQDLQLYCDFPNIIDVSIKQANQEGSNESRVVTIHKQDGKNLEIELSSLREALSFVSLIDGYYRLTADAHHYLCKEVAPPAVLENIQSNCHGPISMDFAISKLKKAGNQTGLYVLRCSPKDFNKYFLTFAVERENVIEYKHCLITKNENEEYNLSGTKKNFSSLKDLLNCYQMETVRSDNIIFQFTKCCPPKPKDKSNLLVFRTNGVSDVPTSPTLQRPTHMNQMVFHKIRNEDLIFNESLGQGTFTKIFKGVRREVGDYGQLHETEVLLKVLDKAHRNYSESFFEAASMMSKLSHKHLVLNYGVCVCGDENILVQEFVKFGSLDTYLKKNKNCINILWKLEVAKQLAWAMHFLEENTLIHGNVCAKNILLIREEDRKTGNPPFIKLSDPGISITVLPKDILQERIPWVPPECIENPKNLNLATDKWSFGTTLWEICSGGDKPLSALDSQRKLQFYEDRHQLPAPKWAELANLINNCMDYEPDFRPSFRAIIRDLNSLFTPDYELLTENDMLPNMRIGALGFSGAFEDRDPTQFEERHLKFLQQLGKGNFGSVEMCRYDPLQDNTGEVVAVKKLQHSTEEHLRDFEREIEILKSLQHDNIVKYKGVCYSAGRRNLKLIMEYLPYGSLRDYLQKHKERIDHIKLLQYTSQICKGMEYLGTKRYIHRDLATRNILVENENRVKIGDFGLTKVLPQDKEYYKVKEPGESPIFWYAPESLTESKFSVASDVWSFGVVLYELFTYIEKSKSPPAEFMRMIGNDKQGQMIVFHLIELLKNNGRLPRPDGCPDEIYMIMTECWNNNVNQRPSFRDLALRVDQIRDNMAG
T1 sequence (P23458 whole entry): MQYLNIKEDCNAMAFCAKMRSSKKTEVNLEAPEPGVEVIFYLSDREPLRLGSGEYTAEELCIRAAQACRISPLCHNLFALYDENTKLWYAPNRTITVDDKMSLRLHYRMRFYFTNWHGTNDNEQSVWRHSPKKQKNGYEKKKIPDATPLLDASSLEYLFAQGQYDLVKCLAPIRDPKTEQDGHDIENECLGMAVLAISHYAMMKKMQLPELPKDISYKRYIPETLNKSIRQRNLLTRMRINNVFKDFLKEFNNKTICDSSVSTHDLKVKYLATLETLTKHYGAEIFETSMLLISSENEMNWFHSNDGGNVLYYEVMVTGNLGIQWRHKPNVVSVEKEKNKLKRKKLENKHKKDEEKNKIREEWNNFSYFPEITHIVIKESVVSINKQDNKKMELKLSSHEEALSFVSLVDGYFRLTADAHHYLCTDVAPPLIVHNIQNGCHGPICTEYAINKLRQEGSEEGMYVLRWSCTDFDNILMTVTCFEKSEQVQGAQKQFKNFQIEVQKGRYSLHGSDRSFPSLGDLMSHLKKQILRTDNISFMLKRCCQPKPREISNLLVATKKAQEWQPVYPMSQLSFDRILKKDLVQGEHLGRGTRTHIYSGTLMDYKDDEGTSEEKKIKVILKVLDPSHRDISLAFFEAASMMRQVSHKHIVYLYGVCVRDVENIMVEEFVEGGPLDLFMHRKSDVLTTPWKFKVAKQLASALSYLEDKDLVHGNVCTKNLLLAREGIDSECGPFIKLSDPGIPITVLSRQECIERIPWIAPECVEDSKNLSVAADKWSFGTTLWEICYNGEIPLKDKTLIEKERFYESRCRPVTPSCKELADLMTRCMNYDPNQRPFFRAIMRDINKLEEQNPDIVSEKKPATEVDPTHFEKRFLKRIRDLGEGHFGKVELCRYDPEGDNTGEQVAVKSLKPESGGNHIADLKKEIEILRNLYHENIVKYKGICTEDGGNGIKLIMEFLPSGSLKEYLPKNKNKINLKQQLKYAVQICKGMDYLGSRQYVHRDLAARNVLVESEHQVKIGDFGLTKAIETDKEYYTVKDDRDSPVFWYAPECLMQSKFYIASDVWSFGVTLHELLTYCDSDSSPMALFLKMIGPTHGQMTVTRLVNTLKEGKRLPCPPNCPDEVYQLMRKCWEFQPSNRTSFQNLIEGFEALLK

SMILES | Ki (JAK1) [nM] | Ki (JAK3; [2]) [nM] | JAK3 (pKi)-JAK1 (pKi) (JAK3; [3]) | JAK 3 (pKi) (JAK3) | JAK 1 (pKi) (JAK1) | Tall-1 (pIC50) [1] | JAK3 (pKi)-JAK1 (pKi) (JAK3; [5]) | IC50 [1, 6] [nM] | also measured
CN(C)C/C=C/C(=O)N1CC[C@H](Oc2cc(-c3ccc(O)cc3)cc3[nH]ncc23)C1 [Compound 1-1] | > 100 | 0.1 to 1 | A (a value of 3 or above) | – | – | – | – | – | Ki (JAK2): 10 to 100 nM; Ki (Tyk2): > 100 nM
C=CC(=O)N1CC[C@H](Oc2cc(-c3ccc(O)cc3)cc3[nH]ncc23)C1 [Compound 1-2] | > 100 | < 0.1 | A (a value of 3 or above) | – | – | – | – | – | Ki (JAK2): 10 to 100 nM; Ki (Tyk2): > 100 nM; IC50 [1, 4]: < 31.6 nM
C=CC(=O)N1CC[C@H](Oc2cc(-c3ccc(O)c(F)c3)cc3[nH]ncc23)C1 [Compound 1-5] | > 100 | < 0.1 | A (a value of 3 or above) | – | – | – | – | – | Ki (JAK2): 10 to 100 nM; Ki (Tyk2): > 100 nM; IC50 [1, 4]: < 31.6 nM
C=CC(=O)N1CC[C@H](Oc2nc(-c3ccc(O)cc3)cc3[nH]ncc23)C1 [Compound 1-8] | > 100 | 0.1 to 1 | A (a value of 3 or above) | – | – | – | – | – | Ki (JAK2): > 100 nM; Ki (Tyk2): > 100 nM; IC50 [1, 4]: 31.6 to 200 nM
C=CC(=O)N1CC(C(C)Oc2nc(-c3ccc(O)cc3)nc3[nH]ncc23)C1 (stereo not shown) [Compound 3-78] | – | – | A (a value of 3 or above) | B (a pKi value between 9 and 10 (Ki between 1 nM and 0.1 nM)) | – | – | – | – | JAK 2 (pKi) (JAK2): E (a pKi value of 7 or below (Ki of 100 nM or above))
CN(C)C/C=C/C(=O)N1CC2(CC(Oc3cc(-c4ccc(O)c(Cl)c4)cc4[nH]ncc34)C2)C1 [Compound 15-4] | – | – | – | A (a pKi value≥10 (Ki≤0.1 nM)) | E (a pKi value of 7 or below (Ki of 100 nM or above)) | B (a pIC50 value between 6.7 (included) and 7.5 (IC50 between 200 nM and 32 nM)) | A (a value of 3 or above) | – | –
CN(C)C/C=C/C(=O)N1CC2(CC(Oc3nc(-c4ccc(O)cc4)cc4[nH]ncc34)C2)C1 [Compound 15-6] | – | – | – | A (a pKi value≥10 (Ki≤0.1 nM)) | D (a pKi value between 7 and 8 (Ki between 100 nM and 10 nM)) | C (a pIC50 value between 6 and 6.7 (IC50 between 1 μM and 200 nM)) | B (a value of 2.3 to 3) | – | –
C=CC(=O)N1CC2(CC(Oc3cc(-c4ccc(O)cc4)nc4[nH]ncc34)C2)C1 [Compound 15-8] | – | – | – | B (a pKi value between 9 and 10 (Ki between 1 nM and 0.1 nM)) | D (a pKi value between 7 and 8 (Ki between 100 nM and 10 nM)) | B (a pIC50 value between 6.7 (included) and 7.5 (IC50 between 200 nM and 32 nM)) | B (a value of 2.3 to 3) | – | –
C=C(CN(C)C)C(=O)N1CC[C@H](Oc2cc(-c3ccc(O)cc3)cc3[nH]ncc23)C1 [Compound 16, (S)-2-((dimethylamino)methyl)-1-(3-((6-(4-hydroxyphenyl)-1H-indazol-4-yl)oxy)pyrrolidin-1-yl)prop-2-en-1-one] | > 100 | 0.1 to 1 | A (a value of 3 or above) | – | – | – | – | – | IC50 [1, 4]: 31.6 to 200 nM
C=CC(=O)N1CC(OCc2cc(-c3ccc(O)cc3)nc3[nH]ncc23)C1 [Compound 16-4] | – | – | – | B (a pKi value between 9 and 10 (Ki between 1 nM and 0.1 nM)) | E (a pKi value of 7 or below (Ki of 100 nM or above)) | B (a pIC50 value between 6.7 (included) and 7.5 (IC50 between 200 nM and 32 nM)) | A (a value of 3 or above) | – | –
C#CC(=O)N1CC[C@H](Oc2cc(-c3ccc(O)cc3)cc3[nH]ncc23)C1 [Compound 17, (S)-1-(3-((6-(4-hydroxyphenyl)-1H-indazol-4-yl)oxy)pyrrolidin-1-yl)prop-2-yn-1-one] | > 100 | – | B (a value of 2.3 to 3) | – | – | – | – | – | IC50 [1, 4]: 200 to 1000 nM; Ki (JAK3; JAK 3 (pKi)): 0.1 to 1 nM
C=CC(=O)N1CCC(Oc2cc(-c3ccc(O)cc3)cc3[nH]nnc23)C1 (stereo not shown) [Compound 17-2] | – | – | – | A (a pKi value≥10 (Ki≤0.1 nM)) | E (a pKi value of 7 or below (Ki of 100 nM or above)) | C (a pIC50 value between 6 and 6.7 (IC50 between 1 μM and 200 nM)) | A (a value of 3 or above) | – | –
CN(C)C/C=C/C(=O)N1CC(COc2cc(-c3c(F)cc(O)cc3F)cc3[nH]ncc23)C1 [Compound 18-2] | 10 to 100 | < 0.1 | – | – | – | – | C (a value of 1.8 to 2.3) | < 31.6 | –
Cc1n[nH]c2cc(-c3ccc(O)cc3)cc(OCC3CN(C(=O)/C=C/CN(C)C)C3)c12 [Compound 18-4] | 10 to 100 | < 0.1 | – | – | – | – | B (a value of 2.3 to 3) | 31.6 to 200 | –
C=CC(=O)N1CC(COc2cc(-c3ccc(O)cc3)cc3[nH]nc(C)c23)C1 [Compound 18-5] | 10 to 100 | 0.1 to 1 | – | – | – | – | B (a value of 2.3 to 3) | < 31.6 | –
C=CC(=O)N1CC(COc2cc(-c3ccc(O)c(Cl)c3)cc3[nH]nc(C)c23)C1 [Compound 18-6] | 10 to 100 | 0.1 to 1 | – | – | – | – | B (a value of 2.3 to 3) | < 31.6 | –
C=CC(=O)N1CC(COc2cc(-c3ccc(O)c(F)c3)cc3[nH]nc(C)c23)C1 [Compound 18-7] | 10 to 100 | 0.1 to 1 | – | – | – | – | C (a value of 1.8 to 2.3) | < 31.6 | –
C=CC(=O)N1CC(COc2cc(-c3ccc(O)cc3)cc3[nH]nc(N(C)C)c23)C1 [Compound 18-11] | > 100 | 0.1 to 1 | – | – | – | – | A (a value of 3 or above) | 200 to 1000 | –
C=CC(=O)N1CC(COc2cc(-c3ccc(O)cc3)cc3[nH]nc(Cl)c23)C1 [Compound 18-14] | – | – | – | B (a pKi value between 9 and 10 (Ki between 1 nM and 0.1 nM)) | E (a pKi value of 7 or below (Ki of 100 nM or above)) | B (a pIC50 value between 6.7 (included) and 7.5 (IC50 between 200 nM and 32 nM)) | A (a value of 3 or above) | – | –
